pIC50: −log10 of the molar value. Like-named read-outs stand apart in the source and are kept apart here.
Key:
[1] = tested on: HSV-1-deltaTK; assay: Plaque number reduction assay, HSV-1-deltaTK on HFFF; assay type: cell-based; settings: HSV-1 thymidine kinase (TK) deletion mutant on HFFF
[2] = tested on: human T-lymphoblastoid leukaemic cell line CEM
[3] = tested on: promyelocytic leukemia HL 60
[4] = tested on: breast carcinoma MCF7
[5] = tested on: cervical carcinoma cells HELA
[6] = tested on: human erythroleukaemia K562
[7] = tested on: human malignant melanoma G 361
[8] = tested on: human osteogenic sarcoma HOS
[9] = tested on: normal human fibroblasts BJ
[10] = target: CDK1/cyclin B (Homo sapiens, UniProt P06493); assay: CDK inhibition assay, CDK1/cyclin B
Chain of CDK1/cyclin B (P06493 whole entry, species assumed): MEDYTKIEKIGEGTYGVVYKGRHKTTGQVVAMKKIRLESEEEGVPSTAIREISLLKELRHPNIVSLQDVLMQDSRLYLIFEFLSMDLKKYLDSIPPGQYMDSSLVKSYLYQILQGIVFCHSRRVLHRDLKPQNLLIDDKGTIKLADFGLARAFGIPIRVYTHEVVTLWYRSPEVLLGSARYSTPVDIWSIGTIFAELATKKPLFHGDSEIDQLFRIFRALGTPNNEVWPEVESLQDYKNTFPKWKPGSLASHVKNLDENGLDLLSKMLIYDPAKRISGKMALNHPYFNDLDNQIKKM
Chain of CDK1/cyclin B (P14635 whole entry partner, species assumed): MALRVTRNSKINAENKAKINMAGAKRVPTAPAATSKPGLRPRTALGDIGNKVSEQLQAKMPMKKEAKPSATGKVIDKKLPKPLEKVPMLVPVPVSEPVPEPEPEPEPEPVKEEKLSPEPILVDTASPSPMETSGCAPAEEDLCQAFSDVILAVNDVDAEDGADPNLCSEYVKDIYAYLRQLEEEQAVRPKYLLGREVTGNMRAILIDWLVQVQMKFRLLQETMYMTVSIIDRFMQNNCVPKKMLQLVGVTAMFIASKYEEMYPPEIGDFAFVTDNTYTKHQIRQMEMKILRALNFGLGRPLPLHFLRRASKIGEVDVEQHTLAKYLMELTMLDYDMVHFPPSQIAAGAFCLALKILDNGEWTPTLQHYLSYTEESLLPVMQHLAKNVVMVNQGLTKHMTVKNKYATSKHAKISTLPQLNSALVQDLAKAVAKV

[11] = target: CDK2/cyclin E (Homo sapiens, UniProt P24941); assay: CDK inhibition assay, CDK2/cyclin E
[12] = target: CDK9/cyclin T (Homo sapiens, UniProt P50750); assay: CDK inhibition assay, CDK9/cyclin T
Chain of CDK9/cyclin T (P50750 whole entry, species assumed): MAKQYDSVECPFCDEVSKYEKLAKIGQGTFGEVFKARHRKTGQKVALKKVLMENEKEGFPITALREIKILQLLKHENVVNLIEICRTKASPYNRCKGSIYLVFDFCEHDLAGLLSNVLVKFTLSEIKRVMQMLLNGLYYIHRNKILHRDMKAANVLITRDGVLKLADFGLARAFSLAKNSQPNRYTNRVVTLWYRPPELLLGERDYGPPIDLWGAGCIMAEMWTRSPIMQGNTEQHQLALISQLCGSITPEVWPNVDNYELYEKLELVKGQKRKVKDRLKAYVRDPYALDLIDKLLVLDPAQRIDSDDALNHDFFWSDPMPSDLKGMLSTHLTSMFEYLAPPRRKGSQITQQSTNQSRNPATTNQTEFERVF
Chain of CDK9/cyclin T (O60563 whole entry partner, species assumed): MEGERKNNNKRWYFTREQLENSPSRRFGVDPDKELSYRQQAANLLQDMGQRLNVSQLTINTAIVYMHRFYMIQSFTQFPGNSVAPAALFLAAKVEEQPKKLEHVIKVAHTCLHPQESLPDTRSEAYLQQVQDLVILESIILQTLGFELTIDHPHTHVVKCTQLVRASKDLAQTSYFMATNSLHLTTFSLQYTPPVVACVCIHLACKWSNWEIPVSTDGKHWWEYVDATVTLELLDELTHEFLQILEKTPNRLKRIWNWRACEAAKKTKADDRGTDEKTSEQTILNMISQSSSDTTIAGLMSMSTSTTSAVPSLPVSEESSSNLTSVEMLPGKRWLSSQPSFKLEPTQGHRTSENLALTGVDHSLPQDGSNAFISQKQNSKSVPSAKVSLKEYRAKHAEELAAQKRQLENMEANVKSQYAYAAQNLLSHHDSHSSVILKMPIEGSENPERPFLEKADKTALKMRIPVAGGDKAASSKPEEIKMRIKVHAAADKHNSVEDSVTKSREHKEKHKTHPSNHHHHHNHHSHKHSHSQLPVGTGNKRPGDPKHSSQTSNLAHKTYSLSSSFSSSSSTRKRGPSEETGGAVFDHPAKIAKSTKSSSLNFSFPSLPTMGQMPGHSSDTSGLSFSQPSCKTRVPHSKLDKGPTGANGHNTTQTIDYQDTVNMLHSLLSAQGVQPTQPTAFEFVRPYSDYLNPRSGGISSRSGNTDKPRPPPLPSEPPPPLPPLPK

[13] = tested on: p53-responsive reporter pRGCΔfoslacZ in human melanoma cell line Arn8; assay: p53-dependent transcriptional activity, β-galactosidase reporter in Arn8 cells; settings: concentration inducing maximum of β-galactosidase activity (p53-responsive reporter)
[14] = In vitro cytotoxic activity (Calcein AM, 72 hours), BJ; settings: human, BJ normal fibroblasts
[15] = tested on: human T-lymphoblastoid leukaemic cell line CEM; assay: In vitro cytotoxic activity (Calcein AM, 72 hours), CEM; settings: read-out: Cytotoxicity IC50 CEM
[16] = tested on: human osteogenic sarcoma HOS; assay: In vitro cytotoxic activity (Calcein AM, 72 hours), HOS; settings: read-out: Cytotoxicity IC50 HOS
[17] = tested on: breast carcinoma MCF7; assay: In vitro cytotoxic activity (Calcein AM, 72 hours), MCF7; settings: Homo sapiens, MCF7, 72 h, read-out: Cytotoxicity IC50 MCF7
[18] = tested on: cervical carcinoma cells HELA; assay: In vitro cytotoxic activity (Calcein AM, 72 hours), HELA; settings: Homo sapiens, read-out: Cytotoxicity IC50 HeLa
[19] = tested on: human erythroleukaemia K562; assay: In vitro cytotoxic activity (Calcein AM, 72 hours), K562; settings: K562, 72 h, read-out: Cytotoxicity IC50 K-562
[20] = tested on: promyelocytic leukemia HL 60; assay: In vitro cytotoxic activity (Calcein AM, 72 hours), HL 60; settings: Homo sapiens, HL-60, 72 h, read-out: Cytotoxicity IC50 HL60
[21] = tested on: human malignant melanoma G 361; assay: In vitro cytotoxic activity (Calcein AM, 72 hours), G 361; settings: G-361, 72 h, read-out: Cytotoxicity IC50 G361
[22] = tested on: VV; assay type: cell-based, Vaccinia virus strain WR; settings: Vaccinia virus on HFFF
[23] = read-out: IC50 CDK1, CDK1/cyclin B, 15 μM ATP, histone substrate
[24] = read-out: IC50 CDK2, CDK2/cyclin E, 15 μM ATP, histone substrate
[25] = read-out: IC50 CDK9, CDK9/cyclin T, 15 μM ATP, histone substrate

| SMILES | pIC50 [2] | pIC50 [3] | pIC50 [4] | pIC50 [5] | pIC50 [6] | pIC50 [7] | pIC50 [8] | pIC50 [9] | pIC50 [11, 24] | pIC50 [12, 25] | Max. β-Gal. Activtity Conc. [13] | pIC50 [10] | pIC50 [11] | pIC50 [12] | IC50 at 72 h [14] | pIC50 [15] | pIC50 [16] | pIC50 [17] | pIC50 [18] | pIC50 [19] | other results |
| --- | --- | --- | --- | --- | --- | --- | --- | --- | --- | --- | --- | --- | --- | --- | --- | --- | --- | --- | --- | --- | --- |
| Nc1nc2c(ncn2COCCO)c(=O)[nH]1 [Acyclovir, 9-[(2-Hydroxyethoxy)methyl]guanine, reference compound] |  |  |  |  |  |  |  |  |  |  |  |  |  |  |  |  |  |  |  |  | inhibition of virus replication (in words) [1]: resistant |
| CC(C)n1cnc2c(NCc3ccccc3N)nc(NC3CCCCC3N)nc21 (centres unmarked) [Compound 101] | 5.15 | 4.62 | 4.82 | 4.82 | 4.57 | 4.85 | 4.60 | < 3.78 | 6.40 | 7.70 | 22 µM |  |  |  |  |  |  |  |  |  | pIC50 [10, 23]: 6.22 |
| CC(C)n1cnc2c(NCc3cc(N)ccc3N)nc(NC3CCC(O)CC3)nc21 (centres unmarked) [Compound 161] | 5.05 | 4.59 | 5.15 | 4.92 | 4.74 | 4.85 | 4.59 | < 3.78 | 6.22 | 7.10 | 20 µM |  |  |  |  |  |  |  |  |  | pIC50 [10, 23]: 6.05 |
| CCC(CO)Nc1nc(NCc2cc(Cl)ccc2N)c2ncn(C3CCCCC3)c2n1 (centres unmarked) [Compound 209] |  |  |  |  |  |  |  |  |  |  | 20 µM | 6.30 | 6.52 | 7.40 | > 167 µM | 4.92 | 4.74 | 4.96 | 4.85 | 4.60 | pIC50 [20]: 4.51; pIC50 [21]: 4.85 |
| Nc1ccccc1CNc1nc(NC2CCC(N)CC2)nc2c1ncn2Cc1ccccc1 (centres unmarked) [Compound 231] |  |  |  |  |  |  |  |  |  |  | 18 µM | 6.10 | 6.30 | 7.30 | > 167 µM | 4.92 | 4.64 | 4.82 | 4.80 | 4.43 | pIC50 [20]: 4.49; pIC50 [21]: 4.82 |
| CCC(CO)Nc1nc(NCc2ccccc2N)c2ncn(Cc3ccccc3)c2n1 (centres unmarked) [Compound 234] |  |  |  |  |  |  |  |  |  |  | 24 µM | 6.15 | 6.40 | 7.52 | > 167 µM | 4.80 | 4.77 | 4.96 | 4.74 | 4.60 | pIC50 [20]: 4.48; pIC50 [21]: 4.74 |
| CCC(CO)Nc1nc(NCc2cc(Cl)ccc2N)c2ncn(Cc3ccccc3)c2n1 (centres unmarked) [Compound 247] |  |  |  |  |  |  |  |  |  |  | 20 µM | 6.10 | 6.22 | 7.15 | > 167 µM | 4.82 | 4.66 | 4.85 | 4.72 | 4.39 | pIC50 [20]: 4.47; pIC50 [21]: 4.68 |
| CC(O)CNc1nc(NCc2ccccc2)c2ncn(C(C)C)c2n1 (centres unmarked) [Compound A216] | 4.57 | 4.23 | 4.52 | 4.44 | 4.10 | 4.36 | 4.24 | < 3.78 | 5.82 | 5.89 |  |  |  |  |  |  |  |  |  |  |  |
| Cn1cnc2c(NCc3ccccc3)nc(NC3CCC(N)CC3)nc21 (centres unmarked) [Compound A1141] | 4.37 | 4.12 | 4.26 | 4.32 | 4.04 | 4.13 | 4.07 | < 3.78 | 5.47 | 5.48 |  |  |  |  |  |  |  |  |  |  | pIC50 [10, 23]: 5.51 |
| CC(C)C(CO)Nc1nc(NCc2ccccc2)c2ncn(C(C)C)c2n1 (centres unmarked) [Compound A2161] | 5.37 | 4.74 | 5.23 | 5.19 | 4.81 | 4.94 | 4.66 | < 3.78 |  | 6.30 |  |  |  |  |  |  |  |  |  |  |  |
| O=c1[nH]c(=O)n([C@H]2C[C@H](O)[C@@H](CO)O2)cc1I [Iododeoxyuridine, 1-(2-Deoxy-β-D-ribofuranosyl)-5-iodouracil] |  |  |  |  |  |  |  |  |  |  |  |  |  |  |  |  |  |  |  |  | inhibition of virus replication (in words) [22]: inhibited equally well |

Reference: patent publication US9023857B2, “Substituted 6-(2-aminobenzylamino)purine derivatives, their use as medicaments and preparations containing these compounds” (Univerzita Palackeho V Olomouci, priority 2009, dated 2015)
